Data: publication PMC5281649 (European Journal of Nuclear Medicine and Molecular Imaging, 2016)
Where two headings read alike, the source gives them in different places.

Biological target: T1, brain MAO-B enzyme (Homo sapiens, UniProt P27338)
T1 sequence (P27338 1-520): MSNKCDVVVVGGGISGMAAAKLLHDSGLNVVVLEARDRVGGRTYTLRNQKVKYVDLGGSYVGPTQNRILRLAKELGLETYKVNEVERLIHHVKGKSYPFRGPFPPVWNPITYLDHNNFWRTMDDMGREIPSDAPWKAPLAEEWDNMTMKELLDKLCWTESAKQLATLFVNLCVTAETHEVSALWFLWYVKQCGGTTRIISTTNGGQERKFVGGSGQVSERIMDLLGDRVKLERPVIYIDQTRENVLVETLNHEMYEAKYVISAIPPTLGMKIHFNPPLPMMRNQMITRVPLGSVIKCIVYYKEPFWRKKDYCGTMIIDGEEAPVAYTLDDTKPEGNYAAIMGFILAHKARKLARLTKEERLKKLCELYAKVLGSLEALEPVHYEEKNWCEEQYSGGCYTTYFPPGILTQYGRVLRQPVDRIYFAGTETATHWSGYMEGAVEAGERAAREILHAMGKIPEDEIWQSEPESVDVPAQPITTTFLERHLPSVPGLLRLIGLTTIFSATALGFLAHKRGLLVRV
Test: PET with [11C]-L-deprenyl-D2: brain MAO-B inhibition after repeated oral sembragiline
Assay type: in vivo
Settings: for receptor occupancy at 0.2 mg: 168 h; for receptor occupancy at 0.2 mg / receptor occupancy at 1 mg / [11C]-L-deprenyl-D2 λk3 post-dose: mean (range); for receptor occupancy at 0.2 mg / receptor occupancy at 1 mg: read-out: Occ (MAO-B occupancy); for receptor occupancy at 1 mg: 336 h
Procedure: The first dose was administered at the study centre under the supervision of study personnel. On subsequent study days, treatment compliance was assured by intake logs and tablet counting.
At baseline, each subject underwent a PET scan using [^11C]-L-deprenyl-D2 to measure MAO-B enzyme activity in the brain prior to their first dose of allocated medication. The second scan was performed at trough concentrations at steady state prior to the last drug administration. Before each scan, a cannula was inserted into a radial artery and another into an antecubital vein. A sterile phosphate buffer (pH = 7.4) containing radioligand was injected as a bolus over several seconds into the cubital vein.
A transmission scan was performed using three rotating ^68Ge rod sources. [^11C]-L-Deprenyl-D2 was injected intravenously as a bolus, and emission data were acquired over 63 min using the ECAT EXACT high-resolution system (Siemens Medical Solutions, Malvern, PA, USA). The injected radioactivity was targeted to approximately 300 MBq. The injected mass of deprenyl was to be ≤100 μg, and ≥50–100-fold lower than the typical administered dose of 5–10 mg deprenyl to patients with Parkinson’s disease. The framing was as follows: 9 frames x 10 s, 2 frames x 15 s, 3 frames x 20 s, 4 frames x 30 s, 4 frames x 60 s, 4 frames x 180 s, 7 frames x 360 s. Images were reconstructed using the standard filtered back-projection, with a 2-mm Hanning filter, a zoom factor of 2.17, and a 128 × 128 matrix, and were corrected for attenuation and scatter. A summation PET image was created for each subject and PET session by averaging across all frames. Time–activity curves were then extracted from selected ROIs.
Arterial blood samples were used for measurement of radioactivity in whole blood and plasma, as well as to determine the parent fraction of the radioligand, using a reversed-phase high-performance liquid chromatography method (Karolinska University Hospital, Solna, Stockholm, Sweden). A catheter was inserted in the radial artery, and arterial blood was collected continuously for 10 min using an automated blood sampling system at a speed of 5 mL/min. Discrete blood samples were drawn approximately 10, 15, 20, 30, 45 and 60 min after each injection of [^11C]-L-deprenyl-D2.
Time–activity data were analysed as previously described. Briefly, [^11C]-L-deprenyl-D2 was quantified by the two-tissue compartment model with three rate constants (K 1, k 2, k 3) using the PMOD 3.3 software package (PMOD Group, Zurich, Switzerland), where the tissue compartments represent the free plus non-specifically bound and specifically bound radiotracer. The outcome measure λk 3 was calculated as (K 1/k 2)*k 3, using a non-linear approach, and was used as an estimate for specific binding to MAO-B that was independent of perfusion. […] This is because λk3 is independent of perfusion and has better reproducibility than k3 alone.

[1] = EC subjects, 1 mg q.d. for 14 days, frontal cortex, N = 3

SMILES: CC(=O)N[C@H]1CC(=O)N(c2ccc(OCc3cccc(F)c3)cc2)C1 [sembragiline]
- MAO-B inhibition at trough (mean values) (1 mg, across all brain ROIs and study populations): 75–86%
- MAO-B inhibition (overall range) (1 mg, six brain ROIs and study populations, overall): 71–88%
- MAO-B inhibition (mean values) (5-mg dose, across brain ROIs): 76–86%
- receptor occupancy at 0.2 mg (EC subjects, 5 mg loading day 1 then 0.2 mg q.d. days 2–7, frontal cortex, N = 3): 51.7%
- receptor occupancy at 0.2 mg (EC subjects, 5 mg loading day 1 then 0.2 mg q.d. days 2–7, hippocampus, N = 3): 51.6%
- receptor occupancy at 0.2 mg (EC subjects, 5 mg loading day 1 then 0.2 mg q.d. days 2–7, parietal cortex, N = 3): 50.7%
- receptor occupancy at 0.2 mg (EC subjects, 5 mg loading day 1 then 0.2 mg q.d. days 2–7, striatum, N = 3): 56.1%
- receptor occupancy at 0.2 mg (EC subjects, 5 mg loading day 1 then 0.2 mg q.d. days 2–7, thalamus, N = 3): 53.7%
- receptor occupancy at 0.2 mg (EC subjects, 5 mg loading day 1 then 0.2 mg q.d. days 2–7, whole brain, N = 3): 49.1%
- receptor occupancy at 1 mg [1]: 76.2%
- receptor occupancy at 1 mg (EC subjects, 1 mg q.d. for 14 days, hippocampus, N = 3): 83.9%
- receptor occupancy at 1 mg (EC subjects, 1 mg q.d. for 14 days, parietal cortex, N = 3): 76.1%
- receptor occupancy at 1 mg (EC subjects, 1 mg q.d. for 14 days, striatum, N = 3): 84.7%
- receptor occupancy at 1 mg (EC subjects, 1 mg q.d. for 14 days, thalamus, N = 3): 85.7%
- receptor occupancy at 1 mg (EC subjects, 1 mg q.d. for 14 days, whole brain, N = 3): 75.4%
- [11C]-L-deprenyl-D2 λk3 post-dose (AD patients, 1 mg q.d. for 14 days, frontal cortex, N = 2): 0.04 (0.03–0.04)
- [11C]-L-deprenyl-D2 λk3 post-dose (AD patients, 1 mg q.d. for 14 days, hippocampus, N = 2): 0.05 (0.05–0.05)
- [11C]-L-deprenyl-D2 λk3 post-dose (AD patients, 1 mg q.d. for 14 days, parietal cortex, N = 2): 0.04 (0.03–0.05)
- [11C]-L-deprenyl-D2 λk3 post-dose (AD patients, 1 mg q.d. for 14 days, striatum, N = 2): 0.04 (0.04–0.05)
- [11C]-L-deprenyl-D2 λk3 post-dose (AD patients, 1 mg q.d. for 14 days, thalamus, N = 2): 0.04 (0.04–0.04)
- [11C]-L-deprenyl-D2 λk3 post-dose (AD patients, 1 mg q.d. for 14 days, whole brain, N = 2): 0.04 (0.04–0.05)
- [11C]-L-deprenyl-D2 λk3 post-dose (AD patients, 5 mg loading day 1 then 0.1 mg q.d. days 2–15, frontal cortex, N = 2): 0.07 (0.06–0.08)
- [11C]-L-deprenyl-D2 λk3 post-dose (AD patients, 5 mg loading day 1 then 0.1 mg q.d. days 2–15, hippocampus, N = 2): 0.11 (0.10–0.11)
- [11C]-L-deprenyl-D2 λk3 post-dose (AD patients, 5 mg loading day 1 then 0.1 mg q.d. days 2–15, parietal cortex, N = 2): 0.07 (0.07–0.08)
- [11C]-L-deprenyl-D2 λk3 post-dose (AD patients, 5 mg loading day 1 then 0.1 mg q.d. days 2–15, striatum, N = 2): 0.12 (0.11–0.13)
- [11C]-L-deprenyl-D2 λk3 post-dose (AD patients, 5 mg loading day 1 then 0.1 mg q.d. days 2–15, whole brain, N = 2): 0.08 (0.08–0.09)
- [11C]-L-deprenyl-D2 λk3 post-dose (AD patients, 5 mg loading day 1 then 0.2 mg q.d. days 2–7, frontal cortex, N = 3): 0.06 (0.05–0.07)
- [11C]-L-deprenyl-D2 λk3 post-dose (AD patients, 5 mg loading day 1 then 0.2 mg q.d. days 2–7, hippocampus, N = 3): 0.07 (0.07–0.08)
- [11C]-L-deprenyl-D2 λk3 post-dose (AD patients, 5 mg loading day 1 then 0.2 mg q.d. days 2–7, parietal cortex, N = 3): 0.06 (0.05–0.07)
- [11C]-L-deprenyl-D2 λk3 post-dose (AD patients, 5 mg loading day 1 then 0.2 mg q.d. days 2–7, striatum, N = 3): 0.08 (0.08–0.08)
- [11C]-L-deprenyl-D2 λk3 post-dose (AD patients, 5 mg loading day 1 then 0.2 mg q.d. days 2–7, thalamus, N = 3): 0.07 (0.07–0.07)
- [11C]-L-deprenyl-D2 λk3 post-dose (AD patients, 5 mg loading day 1 then 0.2 mg q.d. days 2–7, whole brain, N = 3): 0.06 (0.06–0.07)
- [11C]-L-deprenyl-D2 λk3 post-dose (AD patients, 5 mg q.d. for 6–9 days, frontal cortex, N = 2): 0.04 (0.04–0.04)
- [11C]-L-deprenyl-D2 λk3 post-dose (AD patients, 5 mg q.d. for 6–9 days, hippocampus, N = 2): 0.04 (0.03–0.05)
- [11C]-L-deprenyl-D2 λk3 post-dose (AD patients, 5 mg q.d. for 6–9 days, parietal cortex, N = 2): 0.04 (0.03–0.04)
- [11C]-L-deprenyl-D2 λk3 post-dose (AD patients, 5 mg q.d. for 6–9 days, striatum, N = 2): 0.05 (0.04–0.05)
- [11C]-L-deprenyl-D2 λk3 post-dose (AD patients, 5 mg q.d. for 6–9 days, whole brain, N = 2): 0.04 (0.04–0.05)
- [11C]-L-deprenyl-D2 λk3 post-dose [1]: 0.04 (0.04–0.05)
